Where two headings read alike, the source gives them in different places.

One assay addresses CRTH2 (Homo sapiens (Human), UniProt Q9Y5Y4). As to the kind of experiment: CRTH2 receptor binding inhibitory activity ([3H]-PGD2 displacement, membranes of CRTH2-expressing K562 cell). As to conditions: [3H]-PGD2 displacement, membrane of CRTH2-expressing K562 cell, read-out: Ki. The procedure, abridged:
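Incubation ran 60 min at room temperature using 20 μg/well membrane from CRTH2-expressing K562 cells in pH 7.4 Tris/HCl (50 mM) with 10 mM MgCl2.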

A further assay has as its target Human DP1 receptor (Homo sapiens (Human), UniProt Q13258). The assay can be described thus: Human DP1 inhibitory activity in DP1-expressing cell (PGD2-induced cAMP). The class given is cell-based. On the procedure: Compounds were categorized as AA (cAMP is less than 100 nM) and A (cAMP is more than 100 nM and less than 5000 nM) as shown in Table 99 and 100.
The mark [1] stands for this setting: CRTH2 receptor binding, categorized AAAA/AAA.
The mark [2] stands for this setting: category of cAMP IC50, human DP1 receptor expressing Jurkut cell.

Sequence of Human DP1 receptor (Q13258 whole entry): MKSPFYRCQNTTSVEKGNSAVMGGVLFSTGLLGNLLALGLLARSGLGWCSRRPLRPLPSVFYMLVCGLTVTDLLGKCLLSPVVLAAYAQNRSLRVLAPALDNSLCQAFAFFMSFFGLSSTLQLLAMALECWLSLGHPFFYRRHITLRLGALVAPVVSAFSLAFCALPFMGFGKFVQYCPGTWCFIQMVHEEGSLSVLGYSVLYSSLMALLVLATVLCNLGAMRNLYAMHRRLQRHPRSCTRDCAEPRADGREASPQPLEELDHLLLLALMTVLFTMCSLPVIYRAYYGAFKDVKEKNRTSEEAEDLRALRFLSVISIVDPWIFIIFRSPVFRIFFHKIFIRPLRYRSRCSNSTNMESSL
Sequence of CRTH2 (Q9Y5Y4 whole entry): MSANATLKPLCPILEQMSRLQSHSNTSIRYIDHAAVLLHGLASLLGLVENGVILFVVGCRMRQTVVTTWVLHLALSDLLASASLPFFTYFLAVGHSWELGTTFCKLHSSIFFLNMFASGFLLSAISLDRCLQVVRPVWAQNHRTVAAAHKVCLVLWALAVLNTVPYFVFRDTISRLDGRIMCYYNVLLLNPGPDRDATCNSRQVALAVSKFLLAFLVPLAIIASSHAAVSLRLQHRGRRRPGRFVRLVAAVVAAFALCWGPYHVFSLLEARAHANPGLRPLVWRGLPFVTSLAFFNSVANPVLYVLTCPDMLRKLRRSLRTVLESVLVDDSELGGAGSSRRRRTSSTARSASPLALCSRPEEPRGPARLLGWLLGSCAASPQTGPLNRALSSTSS

A word on the Ki: it is a dissociation constant, usually derived from enzyme kinetics or from competition with a known ligand. The IC50 is the point on the concentration scale where inhibition reaches its midpoint. High values mean lower potency, low ones higher potency. Turning to `Cc1c(CC(=O)O)c2ccccc2n1[C@@H]1C[C@H](C)N(S(=O)(=O)c2ccc(OC(F)F)cc2)C1` [Compound I-316], the Ki at CRTH2 (setting [1]) was 100 to 5000 nM; at CRTH2, 220 nM. The IC50 on Human DP1 receptor (IC50 of PGD2 (60 nM)-induced cAMP increase, human DP1 receptor expressing Jurkut cell) is 110 nM; against Human DP1 receptor (setting [2]), 100 to 5000 nM.

`Cc1c(CC(=O)O)c2ccccc2n1[C@@H]1C[C@H](C)N(S(=O)(=O)c2ccc(F)cc2)C1` [Compound I-317]: the Ki on CRTH2 (setting [1]) is 100 to 5000 nM. The IC50 at Human DP1 receptor (setting [2]) lay within 100 to 5000 nM.

As to `Cc1ccc(S(=O)(=O)N2C[C@H](n3c(C)c(CC(=O)O)c4ccccc43)C[C@@H]2C)cc1` [Compound I-318], the Ki on CRTH2 (setting [1]) lay within 100 to 5000 nM. For the same compound, the IC50 against Human DP1 receptor (setting [2]) lay within 100 to 5000 nM.

`CCOc1ccc(S(=O)(=O)N2C[C@H](n3nc(CC(=O)O)c4ccccc43)C[C@@H]2C(N)=O)cc1` [Compound I-319]: at CRTH2 (setting [1]), the Ki lay within 100 to 5000 nM. This compound also returned an IC50 on Human DP1 receptor (setting [2]) of 100 to 5000 nM.

For the compound `CCOc1ccc(S(=O)(=O)N2C[C@H](n3nc(CC(=O)O)c4ccccc43)C[C@H]2C#N)cc1` [Compound I-320], the Ki on CRTH2 (setting [1]) was below 100 nM. The compound further had an IC50 on Human DP1 receptor (setting [2]) below 100 nM.

As to `C=CCOC[C@H]1C[C@@H](n2nc(CC(=O)O)c3ccc(F)cc32)CN1S(=O)(=O)c1ccc(OC(C)C)cc1` [Compound I-323], at CRTH2 (setting [1]), the Ki was in the range of 100 to 5000 nM. At Human DP1 receptor (setting [2]), this compound registered an IC50 of 100 to 5000 nM.

With `CCOc1ccc(S(=O)(=O)N2C[C@@H](C)[C@@H](n3nc(CC(=O)O)c4ccccc43)C2)c([N+](=O)[O-])c1` [Compound I-324], the Ki at CRTH2 (setting [1]) was below 100 nM. For the same compound, on Human DP1 receptor (setting [2]), the IC50 is below 100 nM.

For `CC#CCOC[C@H]1C[C@@H](n2nc(CC(=O)O)c3ccc(F)cc32)CN1S(=O)(=O)c1ccc(OC(C)C)cc1` [Compound I-326], at CRTH2 (setting [1]), the Ki was in the range of 100 to 5000 nM. The compound further displayed an IC50 on Human DP1 receptor (setting [2]) of 100 to 5000 nM.

Consider `CCCOC[C@H]1C[C@@H](n2nc(CC(=O)O)c3ccc(F)cc32)CN1S(=O)(=O)c1ccc(OC(C)C)cc1` [Compound I-327], for which, on CRTH2 (setting [1]), the Ki was in the range of 100 to 5000 nM. Also, the IC50 at Human DP1 receptor (setting [2]) fell in the range of 100 to 5000 nM.

As to `CCOc1ccc(S(=O)(=O)N2C[C@@H](C)[C@@H](n3cc(CC(=O)O)c4ccc(-c5cnn(C)c5)cc43)C2)cc1` [Compound I-328], the Ki at CRTH2 (setting [1]) was in the range of 100 to 5000 nM. At Human DP1 receptor (setting [2]), the IC50 lay in the range of 100 to 5000 nM.

Turning to `CCOc1ccc(S(=O)(=O)N2C[C@@H](C)[C@@H](n3c(C)c(CC(=O)O)c4ccccc43)C2)cn1` [Compound I-330], the Ki on CRTH2 (setting [1]) is below 100 nM. Besides, on Human DP1 receptor (setting [2]), the IC50 was below 100 nM.

As for `CCOc1ccc(S(=O)(=O)N2C[C@H](n3nc(CC(=O)O)c4ccc(F)cc43)C(C)(C)C2)cc1` [Compound I-331], the Ki at CRTH2 (setting [1]) is below 100 nM. In addition, on Human DP1 receptor (setting [2]), the IC50 was below 100 nM.

Take `CCOc1ccc(S(=O)(=O)N2C[C@H](n3nc(CC(=O)O)c4ccccc43)[C@H](C)[C@H]2C#N)cc1` [Compound I-332]: the Ki on CRTH2 (setting [1]) was below 100 nM. Besides, the IC50 against Human DP1 receptor (setting [2]) lay in the range of 100 to 5000 nM.

Take `CCOc1ccc(S(=O)(=O)N2C[C@H](n3nc(CC(=O)O)c4ccccc43)[C@H](C)[C@@H]2C#N)cc1` [Compound I-333]: at CRTH2 (setting [1]), the Ki is below 100 nM. In addition, the IC50 at Human DP1 receptor (setting [2]) is below 100 nM.

For the compound `CC(C)Oc1ccc(S(=O)(=O)N2C[C@H](n3nc(CC(=O)O)c4ccc(F)cc43)C[C@@H]2COc2nc3ccccc3s2)cc1` [Compound I-334], the Ki on CRTH2 (setting [1]) lay within 100 to 5000 nM. In addition, the IC50 against Human DP1 receptor (setting [2]) was below 100 nM.

As for `CCOc1ccc(S(=O)(=O)N2C[C@@H](C)[C@@H](n3nc(C(F)C(=O)O)c4ccccc43)C2)cc1` (stereo partly shown) [Compound I-338], the Ki on CRTH2 (setting [1]) was 100 to 5000 nM. Moreover, the IC50 at Human DP1 receptor (setting [2]) is below 100 nM.

Take `CCOc1ccc(S(=O)(=O)N2C[C@@H](C)[C@@H](n3nc(Cc4cc(O)no4)c4ccccc43)C2)cc1` [Compound I-341]: on CRTH2 (setting [1]), the Ki lay in the range of 100 to 5000 nM. Moreover, at Human DP1 receptor (setting [2]), the IC50 was in the range of 100 to 5000 nM.

`CC(C)Oc1ccc(S(=O)(=O)N2C[C@H](n3nc(CC(=O)O)c4ccc(F)cc43)C[C@@H]2COCCCO)cc1` [Compound I-342]: on CRTH2 (setting [1]), the Ki lay within 100 to 5000 nM. In addition, the IC50 against Human DP1 receptor (setting [2]) is 100 to 5000 nM.

On to `CC(C)Oc1ccc(S(=O)(=O)N2C[C@H](n3nc(CC(=O)O)c4ccc(F)cc43)C[C@@H]2CCc2ccccc2)cc1` [Compound I-343], for which, on CRTH2 (setting [1]), the Ki was below 100 nM. The same compound yielded an IC50 against Human DP1 receptor (setting [2]) below 100 nM.

Source of the values: US9725442B2, “Heterocyclic derivative having PGD2 receptor antagonist activity” (Shionogi & Co., Ltd., priority 2011, dated 2017).
